Experimental data: the METLIN SMRT retention time set (Domingo-Almenara et al. 2019)

Assay: gradient 5% acetonitrile 3 min, to 50% in 2 min, to 85% in 15 min, held 3 min, 100 µL/min
Conditions: column: Zorbax Extend-C18 2.1 x 50 mm; eluents: water / acetonitrile, 0.1% formic acid
How it was run: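 Standards, all pure, were combined into mixtures of ~100 molecules and run at 100 μL/min on a Zorbax Extend-C18 column (2.1 × 50 mm, 1.8 μm) with water and acetonitrile, each containing 0.1% formic acid. A coupled quadrupole time-of-flight mass spectrometer operated in positive and negative ionization mode. Retention time values come from computationally picked adduct peaks, each inspected manually.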

Compound | RP-LC retention time [s]
O=C(NCC(c1cccnc1)c1c[nH]c2ccccc12)Nc1cccc(F)c1 (centres undefined) | 671
O=C(Nc1cccc(Cl)c1)c1cn(CC2CCCO2)cc2c(=O)n(-c3ccccc3)nc1-2 (centres undefined) | 1100
Cc1cccc(-c2noc(Cn3ncn4nc(-c5ccc(F)cc5)cc4c3=O)n2)c1 | 1150
Cc1cccc(-c2cc(C(N)=O)c3ccccc3n2)c1 | 816
CC1(C)CC(=O)c2cn(-c3ccccc3)c(=O)c(C(=O)Nc3cccnc3)c2C1 | 700
Cn1cc(C(CNC(=O)Nc2ccccc2Cl)c2cccnc2)c2ccccc21 (centres undefined) | 726
CCNCc1ccc(-c2cc(Cl)ccc2Cl)o1 | 686
CCOc1ccccc1C(=O)Nc1c(C(=O)Nc2ccccc2F)oc2cccnc12 | 841
CCC1CN(C(=O)Nc2ccc(OC)cc2)c2ccccc2O1 (centres undefined) | 968
Cc1ccc(C)c(NC(=O)C2CCN(S(=O)(=O)c3cc(-c4noc(C)n4)cs3)CC2)c1 | 953
O=C(NCCC1CCN(C(=O)Nc2cc(F)ccc2F)CC1)c1ccco1 | 758
CN(C)c1ccc(CCCNC(=O)C2CC2)cc1 | 525
CN1CCN(C(=O)Cn2cccc2-c2nc(-c3ccc(Cl)cc3)cs2)CC1 | 715
COC(=O)Nc1ccc(S(=O)(=O)N2CCCC(C(=O)O)C2)cc1 (centres undefined) | 640
COc1ccc(CNC(=O)CCc2conc2-c2ccc(F)cc2)cc1 | 860
Cc1cc(C)cc(NC(=O)CN2C(=O)COc3ccc(C(=O)N4CCCC4)cc32)c1 | 773
CCc1cc(C(=O)Nc2cc(C)ccc2F)nc2ccnn12 | 1150
O=C(c1cnccn1)N1CCC(F)(F)C(COCC2CC2)C1 (centres undefined) | 786
O=C(CSc1ccc2nnc(-c3cccs3)n2n1)NCc1ccc(F)cc1 | 655
CCOc1ccc(NC(=O)Cn2c(=O)n(-c3ccccc3)c(=O)c3c2cc(C)n3C)cc1 | 832
CCC(=O)NC(C)c1nc(-c2ccc(Cl)cc2)no1 (centres undefined) | 823
CN(C)CC1CCN(C(=O)NC2CCCCC2)CC1 | 570
Cc1nn(-c2ccccc2)cc1C(=O)N1CCC(CC(=O)NC2CC2)CC1 | 667

Compound | RP-LC retention time [s]
COc1cccc(-c2cc(C(=O)N3CC(c4nc(-c5cccs5)no4)C3)[nH]n2)c1 | 798
O=C(NC1CCN(Cc2ccccc2)CC1)C1CCCN(C(=O)c2cccc(Cl)c2)C1 (centres undefined) | 650
CN(C)c1cccc(C(=O)NCc2nn(C)c3ccccc23)c1 | 709
Cn1c(Cn2c(=O)sc3ccccc32)nnc1SCC(=O)N1CCc2ccccc21 | 746
COCc1nnc([C@@H]2CC(F)(F)CN2Cc2ccc(OC)cc2)o1 | 837
O=C(Cn1c(=O)c2cc(C3CC3)nn2c2ncccc21)N1CCc2ccccc21 | 808
CC(C)CN1N=C(C(=O)N2CCOCC2)S(=O)(=O)c2ccc(Cl)cc21 | 813
CCc1nc2cc(N3CCC(C(=O)NC(C)c4ccccn4)CC3)cnc2nc1CC (centres undefined) | 628
O=C(CSc1nccn1-c1cccc(C(F)(F)F)c1)Nc1nccs1 | 728
Cc1ccc(C)c2c(=O)c3c([nH]c12)CCN(CC(=O)Nc1ccccc1Cl)C3 | 656
Cc1ccc(-c2noc(C3CCCN3C(=O)c3ccc(CS(=O)(=O)c4ccccc4)cc3)n2)cc1 (centres undefined) | 1010
CN1CCCn2cc(S(=O)(=O)NCCc3ccc(Cl)cc3)cc2C1=O | 752
Cc1cc(OCC(=O)Nc2cccc(C)c2C)nc(N2CCN(c3ccccc3)CC2)n1 | 885
COc1ccc2c(c1)C1(CCN(C(=O)c3cccs3)C1)C(=O)N2C (centres undefined) | 738
Cc1ccccc1Oc1nccn2c(=O)n(CC(=O)Nc3ccc(F)cc3F)nc12 | 829
CC(C)CC(=O)NC(Cc1ccccc1)c1nnc(N2CCN(C)CC2)o1 (centres undefined) | 621
CCOc1cc(=O)n2c(c1C(=O)Nc1cc(Cl)ccc1OC)CCCC2 | 854
CC(=O)N[C@@H]1CCN(Cc2ccccc2C(F)(F)F)C[C@@H]1CO | 574
Cc1ccc2[nH]cc(CCNC(=O)CCC(=O)N3Cc4cccn4-c4ccccc43)c2c1 | 868
COc1cc(OC)c(NC(=O)Cn2c(=O)n(-c3cccc(C)c3)c(=O)c3c2cc(C)n3C)cc1Cl | 871
Cc1cccc(C)c1NC(=O)N(C)CC1CCOCC1 | 692
CCS(=O)(=O)N1CCCc2cc(C(=O)Nc3cc(OC)c(Cl)cc3OC)ccc21 | 1040
Cc1ccccc1CNC(=O)C1CCCN(c2nc3ccsc3c(=O)n2Cc2ccc(F)cc2)C1 (centres undefined) | 1010

Compound | RP-LC retention time [s]
COC(=O)c1nn(-c2ccc(C)cc2)c2c(=O)n(C)cnc12 | 707
CCc1ccc(-n2ncc3c(=O)n(Cc4nc(-c5ccc(F)c(Cl)c5)no4)cnc32)cc1 | 1250
Cc1cccc(-c2noc(C3CC(=O)N(c4ccc5c(c4)OCO5)C3)n2)c1 (centres undefined) | 978
Cn1c(=O)c2ccn(CC(=O)Nc3cccc(C(F)(F)F)c3)c2n(C)c1=O | 705
O=C(CN1C(=O)CCC1=O)Nc1ncc(S(=O)(=O)c2ccc([N+](=O)[O-])cc2)s1 | 706
COCc1nc2nccc(-c3ccc(OC)cc3F)n2n1 | 711
CCN1CCN(c2ccc(-c3nc(-c4cccc(F)c4)no3)cn2)CC1 | 698
O=C(NCc1ccc(N2CCCCC2)cc1)c1cn2c(n1)CSCC2 | 577
COC(=O)C1=CN(c2cccc(F)c2)c2ccc(F)cc2S1(=O)=O | 838
O=C(c1ccsc1)N1CCC(OCc2nc(C3CC3)no2)CC1 | 762
CC1CCN(c2cc(-n3cnc(C(=O)N4CCN(C5CCCCC5)CC4)c3)ncn2)CC1 | 597
Cc1ccc(CNC(=O)c2ccc(-c3ccsc3)nc2)o1 | 824
O=C(NCC1CC1)c1c(O)c2cccnc2n(Cc2ccccc2)c1=O | 1310
CNC(=O)C1CCCN(c2nc3ncn(CC(=O)Nc4cccc(SC)c4)c(=O)c3s2)C1 (centres undefined) | 669
Cc1nc(OCC(=O)NCCN2CCCC2)c2c(-c3ccccc3)noc2n1 | 627
O=C(Nc1ccc2c(c1)CN(C(=O)COc1ccccc1)CCO2)C1CC1 | 752
CCN1C(=O)COc2ccc(-c3noc(-c4cccc(OC)c4OC)n3)cc21 | 1060
CCN(CC)S(=O)(=O)c1ccc2nc(N3CCN(c4ccccn4)CC3)cnc2c1 | 675
CCCN1C(=O)COc2cc(-c3noc(C(=O)NCC4CCCN4CC)n3)ccc21 (centres undefined) | 645
CCCN1C(=O)COc2cc(-c3noc(C(=O)NCC4CCCO4)n3)ccc21 (centres undefined) | 841
Nc1cc(C2CCN(C(=O)COc3ccccc3)CC2)no1 | 662
CCOC(=O)c1c(C)oc2nc(C)nc(NCC3CCN(Cc4ccc(F)cc4)CC3)c12 | 712
CCn1c(C2CCCN(C(=O)NC(C)C)C2)nn(C)c1=O (centres undefined) | 613

Compound | RP-LC retention time [s]
O=C(Cn1ccc2ccccc21)N1CCN(c2ccc(C(F)(F)F)cn2)CC1 | 982
COc1cc(C[C@H](C)N)c(OC)cc1I | 705
Cn1c(=O)sc2cc(S(=O)(=O)N3CCC(C(=O)NC4CCCC4)CC3)ccc21 | 777
Cc1ccccc1Cn1c(CN2CCC(C(=O)N3CCCC3)CC2)cc2ccccc21 | 757
CCN1CCCC1CN(CC(=O)N1CCNCC1)S(=O)(=O)c1ccc(C(C)C)cc1 (centres undefined) | 604
CCCCNC(=O)CCC1CCCN(c2cc(NCC)ncn2)C1 (centres undefined) | 641
C=C(C)CSc1nnc(-c2ccc(OC)cc2)o1 | 1030
CCc1nc2cc(N3CCC(C(=O)N4CCC5(CC4)OCCO5)CC3)cnc2nc1CC | 723
COc1ccc(-c2nnc(-c3ccc(C)c(S(=O)(=O)NC(C)(C)CO)c3)o2)cc1OC | 749
O=C(Nc1ccc(Br)c(F)c1)c1cnc(-c2ccccc2)nc1-c1ccncc1 | 1030
COc1cc(-c2ccc(Nc3ccccc3C(=O)O)c(OC)c2)ccc1Nc1ccccc1C(=O)O | 1290
COCCn1cnc2c(-c3ccccc3)cn(CC(=O)NCc3ccc4c(c3)OCO4)c2c1=O | 828
O=C(NCCc1csc(C2CCN(C(=O)C3CCCO3)CC2)n1)C1CC1 (centres undefined) | 603
O=C(NCC(O)c1ccc(C(F)(F)F)cc1)c1ccco1 (centres undefined) | 711
Cc1cccc(CNC2=NCCNC23CCN(S(=O)(=O)c2cc(C)cc(C)c2)CC3)c1 | 787
COCCOC(=O)c1c(C)oc2ccc(OC(=O)C3CC3)cc12 | 941
O=C(Nc1ccc2c(c1)OCCO2)C1CCCN(c2ncc(-c3cccc(F)c3)cn2)C1 (centres undefined) | 1040
COCCNC(=O)c1ccc(OC2CCN(CC(c3ccccc3)c3ccccc3)CC2)c(OC)c1 | 680
CCOc1ccc(-c2nc(COc3cc(C(F)(F)F)c4c(C)nn(C)c4n3)c(C)o2)cc1OC | 1330
Fc1cccc(-c2noc(-c3ccc(N4CCN(c5ccccn5)CC4)nc3)n2)c1 | 799
